According to patent US20260001928A1 (CORTERIA PHARMACEUTICALS, priority 2022, published 2026):
*1 amine or outer side, *2 acyl side, *3 side chain or, on linkers, in order; H or OH if unused. Where a SMILES comes first, the peptide text is derived from it. Side-chain parts run from the residue outwards. [ ]: non-standard residue; d: D form. The star is where a group is joined. C16 diacid = O=C(O)CCCCCCCCCCCCCCC(=O)*; γGlu = O=C(O)[C@H](CCC(=O)[*:2])N[*:1]; αMeL = CC(C)C[C@](C)(N)C(=O)O; Aib = CC(C)(N)C(=O)O

Columns and labels:
human CRF2a receptor = target: T1, human CRF2a receptor (Homo sapiens, UniProt Q13324); assay: Activity at human CRF2a receptor, cAMP functional assay in TeloHEAC cells; assay type: cell-based; details: TeloHEAC cells stably expressing human CRF2a receptor, relative to urocortin 2 (100 nM = 100%)
T1 construct: expressed in transfected cells; host or cells: TeloHEAC cells
T1 sequence (Q13324 1-411): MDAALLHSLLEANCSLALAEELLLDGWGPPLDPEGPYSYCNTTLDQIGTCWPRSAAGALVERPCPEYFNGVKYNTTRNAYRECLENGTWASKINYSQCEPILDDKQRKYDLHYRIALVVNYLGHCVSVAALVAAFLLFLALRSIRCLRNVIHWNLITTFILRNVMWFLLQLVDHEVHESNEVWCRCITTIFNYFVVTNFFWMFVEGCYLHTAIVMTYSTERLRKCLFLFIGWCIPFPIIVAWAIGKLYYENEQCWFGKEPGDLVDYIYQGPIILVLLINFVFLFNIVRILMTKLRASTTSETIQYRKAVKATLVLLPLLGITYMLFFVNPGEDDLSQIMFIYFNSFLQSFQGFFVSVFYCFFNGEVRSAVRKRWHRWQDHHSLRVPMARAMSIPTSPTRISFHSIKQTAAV
Procedure, shortened: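 cAMP accumulation was measured by HTRF 665/620 nm ratio after 30 min at 37° C compound exposure (16 twofold dilutions) of CRF2a-expressing TeloHEAC cells, 10000/well, in HEPES-buffered HBSS plus IBMX. Activity was normalised to urocortin 2 at 100 nM (100%), and EC50 was the concentration giving half-maximal activation.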

CFR1R receptor = target: T2, CFR1R receptor (Homo sapiens, UniProt P34998); assay: Activity at anti-target CFR1R receptor, cAMP assay in CRF1R-overexpression CHO-K1 cells; assay type: cell-based; details: 100% = Sauvagine at 100 nM; for EC50: cAMP
T2 construct: host or cells: CHO-K1 (clone 2)
T2 sequence (P34998 24-415): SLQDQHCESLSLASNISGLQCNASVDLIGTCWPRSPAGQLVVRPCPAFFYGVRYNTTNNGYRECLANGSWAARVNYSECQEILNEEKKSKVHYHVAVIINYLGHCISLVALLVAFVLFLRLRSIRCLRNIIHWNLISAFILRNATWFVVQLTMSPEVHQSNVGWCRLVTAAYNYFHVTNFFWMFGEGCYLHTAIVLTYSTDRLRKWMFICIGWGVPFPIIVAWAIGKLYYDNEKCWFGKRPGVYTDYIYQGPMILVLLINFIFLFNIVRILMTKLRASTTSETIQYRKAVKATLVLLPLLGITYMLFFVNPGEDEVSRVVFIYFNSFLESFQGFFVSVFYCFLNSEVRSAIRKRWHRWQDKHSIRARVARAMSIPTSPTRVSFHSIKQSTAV
Procedure, shortened: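 Clone 2 cells were cultured in F12 (Hams)/10% FBS/400 μg/ml G418 at 37° C./5% CO2, frozen in medium with 10% DMSO, and thawed vials used. The protocol followed the TeloHAEC procedure, with 4000 cells/well final and Sauvagine at 100 nM defining 100% activation.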

[1] = Chemical stability in buffer (pH 7.4 / pH 4.5), % purity loss; assay type: physicochemical; details: 40° C. vs 5° C., 14 or 28 days; for Buffer stability pH 7.4 % purity loss: 100 mM phosphate buffer pH 7.4
Procedure, shortened: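 Compounds dissolved at 10 mg/mL target in 100 mM phosphate (pH 7.4) or 100 mM acetate (pH 4.5) buffer for 1 h at room temperature, then centrifuged. Diluted supernatant stored at 5 °C or 40 °C for 14 or 28 days; % purity loss by LC-UV.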

Sprague Dawley rats = assay: Effect on systolic blood pressure, telemetry in Sprague Dawley rats; assay type: in vivo, rat; details: 0.1 mg/kg SC; for Systolic blood pressure (Mean) % change from baseline, 8 h / Systolic blood pressure (Mean) % change from baseline, 12 h / Systolic blood pressure (Mean) % change from baseline, 24 h: n=2; for Duration of action: last time point with an effect on BP still observed
Procedure, shortened: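 Sprague Dawley rats with abdominal-aorta telemetry catheters, recovered ≥10 days, received 0.1 mg/kg SC of compound or vehicle. Systolic pressure recorded 1 h pre-dose as baseline, then continuously up to 48 hours, expressed as % change from baseline; duration of action is last time point with a BP effect (n=2).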

EC50 (human CRF2a receptor) [nM]	Emax (% I) (CFR1R receptor)	EC50 (CFR1R receptor) [nM]	Buffer stability pH 7.4 % purity loss [1]	Buffer stability pH 4.5 % purity loss ([1]; 100 mM acetate buffer pH 4.5) [%]	SMILES	Systolic blood pressure (Mean) % change from baseline, 8 h (Sprague Dawley rats) [%]	Systolic blood pressure (Mean) % change from baseline, 12 h (Sprague Dawley rats) [%]	Systolic blood pressure (Mean) % change from baseline, 24 h (Sprague Dawley rats) [%]	Duration of action (Sprague Dawley rats) [h]
0.3	1	> 250	0/nd ^ %		CC[C@H](C)[C@H](NC(C)=O)C(=O)N[C@H](C(=O)N[C@@H](CC(C)C)C(=O)N[C@@H](CO)C(=O)N[C@@H](CC(C)C)C(=O)N[C@@H](CC(=O)O)C(=O)N[C@H](C(=O)N1CCC[C@H]1C(=O)N[C@H](C(=O)N[C@@H](CCCCN)C(=O)N[C@@](C)(CC(C)C)C(=O)N[C@@H](CCCCNC(=O)CC[C@H](NC(=O)CCCCCCCCCCCCCCC(=O)O)C(=O)O)C(=O)N[C@@H](CCCCN)C(=O)N[C@H](C(=O)N[C@@H](CC(C)C)C(=O)N[C@@H](CC(C)C)C(=O)N[C@@H](CCC(=O)O)C(=O)N[C@@H](CCC(N)=O)C(=O)N[C@@H](CCC(=O)O)C(=O)N[C@@H](CCCCN)C(=O)N[C@@H](CCC(N)=O)C(=O)N[C@@H](CCCCN)C(=O)N[C@@H](CCCCN)C(=O)N[C@@H](CCC(N)=O)C(=O)N[C@@H](CCCNC(=N)N)C(=O)N[C@@H](CCC(=O)O)C(=O)N[C@@H](CCC(N)=O)C(=O)N[C@@H](C)C(=O)N[C@@H](CCC(=O)O)C(=O)N[C@H](C(=O)N[C@@H](CC(N)=O)C(=O)NC(C)(C)C(=O)N[C@@H](CCC(N)=O)C(=O)N[C@H](C(=O)N[C@@H](CC(C)C)C(=O)N[C@@H](C)C(=O)N[C@@H](CCC(N)=O)C(=O)N[C@H](C(N)=O)C(C)C)[C@@H](C)CC)[C@@H](C)O)[C@@H](C)CC)[C@@H](C)CC)C(C)C)C(C)C [compound 43] (Ac-IVLSLDVPIK[αMeL]K([γGlu-C16 diacid])KILLEQEKQKKQREQAETN[Aib]QILAQV-NH2)	−18	−1	13	12
0.09	10	> 250	9.0%	0	CC[C@H](C)[C@H](NC(C)=O)C(=O)N[C@H](C(=O)N[C@@H](CC(C)C)C(=O)N[C@@H](CO)C(=O)N[C@@H](CC(C)C)C(=O)N[C@@H](CC(=O)O)C(=O)N[C@@H](C(=O)N1CCC[C@H]1C(=O)N[C@H](C(=O)N[C@@H](CCCCN)C(=O)N[C@@H](CC(C)C)C(=O)N[C@@H](CCCCNC(=O)CC[C@H](NC(=O)CCCCCCCCCCCCCCC(=O)O)C(=O)O)C(=O)N[C@@H](CCCCN)C(=O)N[C@H](C(=O)N[C@@H](CC(C)C)C(=O)N[C@@H](CC(C)C)C(=O)N[C@@H](CCC(=O)O)C(=O)N[C@@H](CCC(N)=O)C(=O)N[C@@H](CCC(=O)O)C(=O)N[C@@H](CCCCN)C(=O)N[C@@H](CCC(N)=O)C(=O)N[C@@H](CCCCN)C(=O)N[C@@H](CCCCN)C(=O)N[C@@H](CCC(N)=O)C(=O)N[C@@H](CCCNC(=N)N)C(=O)N[C@@H](CCC(=O)O)C(=O)N[C@@H](CCC(N)=O)C(=O)N[C@@H](C)C(=O)N[C@@H](CCC(=O)O)C(=O)N[C@H](C(=O)N[C@@H](CC(N)=O)C(=O)N[C@@H](C)C(=O)N[C@@H](CCC(N)=O)C(=O)N[C@H](C(=O)N[C@@H](CC(C)C)C(=O)N[C@@H](C)C(=O)N[C@@H](CCC(N)=O)C(=O)N[C@H](C(N)=O)C(C)C)[C@@H](C)CC)[C@@H](C)O)[C@@H](C)CC)[C@@H](C)CC)C(C)C)C(C)C [compound 47] (Ac-IVLSLD[dV]PIKLK([γGlu-C16 diacid])KILLEQEKQKKQREQAETNAQILAQV-NH2)	−14	−6	2	23
